Source: patent US5340814A, “3-substituted methyl-2,3-dihydroimidazo[1,2-C] quinazoline derivatives, the preparation and use thereof” (National Science Council, priority 1992, dated 1994)

Tests used:
α1-Adrenergic receptor = α1-Adrenergic receptor binding, [^3 H] prazosin, rat brain cortex membranes; details: 0.2 nM [^3 H] prazocin, pH 7.4, 30 min, room temperature
Experimental: (§1) After the removal of nuclei by centrifugation at 1000×g for 10 min, P2 membranes were pelleted by centrifuging the supernatant at 22,000×g for 20 min. After two periods of centrifugation at 22,000×g and resuspension in fresh buffer, the membrane suspension (about 2 mg/ml protein) was ready for use. α1 -Adrenergic receptor binding assays (in triplicate) were carried out with 0.2 nM [^3 H] prazocin in a final volume of 1.0 ml of Tris buffer at pH 7.4 for 30 min at room temperature, using 10 μM phentolamine to determine non-specific binding. The concentrations of synthetic compounds for competition binding were in the range of 0.1-200 nM. α2 -adrenergic receptor binding assays (in triplicate) were carried out with 1 nM [^3 H] clonidine in the presence of 10 mM MgCl2 and in a final volume of 1.0 ml of Tris buffer at pH 7.4 for 30 min at room temperature, using 10 μM clonidine to determine non-specific binding. The concentrations of synthetic compounds for competition binding were in the range of 0.1-100 μM. […] The amount of membrane protein used in each assay was in the range of 300-400 μg, as determined by the method of Lowry et al. The results are given in Table 2. […] All other chemicals used were reagent grade and were purchased from Sigma (St. Louis, Mo.).

[1] = Antihypertensive activity in anesthetized cats (blood pressure); format: in vivo, cat; details: pentobarbital-anesthetized cats
Experimental: The pharmacological activities of the compounds of the present invention are described in the following experiment. In this experiment, the test compounds used are as follows.
Adult cats of either sex, 2-3 Kg, anesthetized with pentobarbital sodium (30 mg/Kg i.p.) were used. The trachea was intubated to provide artificial respiration with air by means of a Harvard respirator (respiration rate=6-20/min and colume=40-50 ml/stroke). Both femoral artery and vein were cannulated with PE 150 to monitor blood pressure and for drug administration respectively. Body temperature was maintained at 37.5° C. with a heating pad and monitored with a rectal thermometer. Blood pressure was measured with a Statham P23D pressure transducer via a polyethylene cannula conducted to a right femoral artery. Heart rate was measured through a Grass Model 7B tachograph preamplifier triggered by the pulses of arterial blood pressure. All data were recorded on a Grass Model 7B polygraph.

α2-adrenergic receptor = target: T1, α2-adrenergic receptor (Rattus norvegicus, UniProt P22909); test: α2-Adrenergic receptor binding, [^3 H] clonidine, rat brain cortex membranes; details: 1 nM [^3 H] clonidine, 10 mM MgCl2, pH 7.4, 30 min, room temperature
T1 construct: from tissue; host or cells: rat brain cortex, P2 membranes
T1 sequence (P22909 1-465): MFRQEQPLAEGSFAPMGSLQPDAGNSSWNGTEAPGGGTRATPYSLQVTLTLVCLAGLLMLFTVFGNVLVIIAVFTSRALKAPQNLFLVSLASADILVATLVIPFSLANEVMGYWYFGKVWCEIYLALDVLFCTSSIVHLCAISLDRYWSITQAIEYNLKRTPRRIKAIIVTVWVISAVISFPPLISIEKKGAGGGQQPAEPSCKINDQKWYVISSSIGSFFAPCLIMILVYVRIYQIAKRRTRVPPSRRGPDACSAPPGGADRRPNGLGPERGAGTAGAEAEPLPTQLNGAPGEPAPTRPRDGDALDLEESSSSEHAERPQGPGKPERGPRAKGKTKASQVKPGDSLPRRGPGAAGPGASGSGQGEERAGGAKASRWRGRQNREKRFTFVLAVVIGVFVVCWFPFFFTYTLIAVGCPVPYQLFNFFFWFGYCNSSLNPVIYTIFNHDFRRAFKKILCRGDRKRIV
Experimental: as §1

[2] = acting as serotonin-S2 and α1-adrenoceptor antagonist, respectively; cited from earlier work

| SMILES | Ki (α1-Adrenergic receptor) | MBP (2 hr) ([1]; dose 1 mg/Kg) | also measured |
| --- | --- | --- | --- |
| CSC1=Nc2ccccc2C2=NCC(CN3CCN(c4ccccc4)CC3)N12 (stereo not drawn) [Example 5, 3-[4-(1-Phenyl)piperazinyl]methyl-5-methylthio-2,3-dihydroimidazo[1,2-c]quinazoline] | > 10 nM |  |  |
| COC1=Nc2ccccc2C2=NCC(CN3CCN(c4cccc(OC)c4)CC3)N12 (stereo not drawn) [Example 14, 3-{4-[1-(3-methoxyphenyl)piperazinyl]}methyl-5-methoxy-2,3-dihydroimidazo[1,2-c]quinazoline] | > 100 nM |  |  |
| COC1=Nc2ccccc2C2=NCC(CN3CCN(c4ccccc4Cl)CC3)N12 (stereo not drawn) [Example 16, 3-{4-[1-(2-chlorophenyl)piperazinyl]}methyl-5-methoxy-2,3-dihydroimidazo[1,2-c]quinazoline] |  | 23 mmHg |  |
| O=C1Nc2ccccc2C2=NCC(CN3CCN(c4ccccc4)CC3)N12 (stereo not drawn) [Example 17, 3-(4-Phenyl-1-piperazinyl)-methyl-2,3-dihydroimidazo[1,2-c]quinazolin-5(6H)-one] |  |  | Ki (α2-adrenergic receptor): 962 ± 29 nM |
| CN1C(=O)N2C(=NCC2CN2CCN(c3ccccc3Cl)CC2)c2ccccc21 (stereo not drawn) [Example 22, 3-{4-[1-(2-chlorophenyl)piperazinyl]}methyl-6-methyl-2,3-dihydroimidazo[1,2-c]quinazolin-5(6H)-one] |  | 50 mmHg |  |
| O=C(c1ccc(F)cc1)C1CCN(CCn2c(=S)[nH]c3ccccc3c2=O)CC1 [thioketanserin] |  |  | antihypertensive activity (in words), background art [2]: found to have antihypertensive activities |

More lines, in order of falling Ki (α1-Adrenergic receptor), values ahead:

| Ki (α1-Adrenergic receptor) | SMILES | MBP (2 hr) ([1]; dose 1 mg/Kg) | also measured |
| --- | --- | --- | --- |
| 48.9 ± 20.4 nM | COc1cccc(N2CCN(CC3CN=C4c5ccccc5N=C(SC)N43)CC2)c1 (stereo not drawn) [Example 7, 3-{4-[1-(3-methoxyphenyl)piperazinyl]}methyl-5-methylthio-2,3-dihydroimidazo[1,2-c]quinazoline] |  | Ki (α2-adrenergic receptor): 8360 ± 588 nM |
| 5.76 ± 0.48 nM | COc1cccc(N2CCN(CC3CN=C4c5ccccc5NC(=O)N43)CC2)c1 (stereo not drawn) [Example 19, 3-{4-[1-(3-methoxyphenyl)piperazinyl]}methyl-2,3-dihydroimidazo[1,2-c]-quinazolin-5(6H)-one] |  |  |
| 0.58 ± 0.07 nM | O=C1Nc2ccccc2C2=NCC(CN3CCN(c4ccccc4Cl)CC3)N12 (stereo not drawn) [Example 21, 3-{4-[1-(2-chlorophenyl)piperazinyl]}methyl-2,3-dihydroimidazo[1,2-c]quinazolin-5(6H)-one] | 35 mmHg |  |
| 0.54 ± 0.09 nM | COc1ccccc1N1CCN(CC2CN=C3c4ccccc4N=C(SC)N32)CC1 (stereo not drawn) [Example 6, 3-{4-[1-(2-methoxyphenyl)piperazinyl]}methyl-5-methylthio-2,3-dihydroimidazo[1,2-c]quinazoline] | 70 mmHg |  |
| 0.45 ± 0.09 nM | COc1ccccc1N1CCN(CC2CN=C3c4ccccc4NC(=O)N32)CC1 (stereo not drawn) [Example 18, 3-{4-[1-(2-methoxyphenyl)piperazinyl]}methyl-2,3-dihydroimidazo[1,2-c]quinazolin-5(6H)-one] | 50 mmHg |  |
| 0.36 ± 0.05 nM | COc1ccccc1N1CCN(CC2CN=C3c4ccccc4N(C)C(=O)N32)CC1 (stereo not drawn) [Example 23, 3-{4-[1-(2-methoxyphenyl)piperazinyl]}methyl-6-methyl-2,3-dihydroimidazo[1,2-c]quinazolin-5(6H)-one] | 63 mmHg | MBP (2 hr) ([1]; dose 0.25 mg/Kg): 40 mmHg |
| 0.34 ± 0.06 nM | CSC1=Nc2ccccc2C2=NCC(CN3CCN(c4ccccc4Cl)CC3)N12 (stereo not drawn) [Example 9, 3-{4-[1-(2-chlorophenyl)piperazinyl]}methyl-5-methylthio-2,3-dihydroimidazo[1,2-c]quinazoline] | 30 mmHg | Ki (α2-adrenergic receptor): 180 ± 7 nM |
| 0.25 ± 0.06 nM | COc1ccccc1N1CCN(CCn2c(=O)[nH]c3ccccc3c2=O)CC1.Cl [SGB-1534, reference compound] |  | antihypertensive activity (in words), background art [2]: found to have antihypertensive activities |
| 0.07 ± 0.007 nM | COC1=Nc2ccccc2C2=NCC(CN3CCN(c4ccccc4OC)CC3)N12 (stereo not drawn) [Example 12, 3-{4-[1-(2-Methoxyphenyl)piperazinyl]}methyl-5-methoxy-2,3-dihydroimidazo[1,2-c]quinazoline] |  |  |
